Target: T1, tyrosinase (Homo sapiens, UniProt P14679)
T1 sequence (P14679 19-529): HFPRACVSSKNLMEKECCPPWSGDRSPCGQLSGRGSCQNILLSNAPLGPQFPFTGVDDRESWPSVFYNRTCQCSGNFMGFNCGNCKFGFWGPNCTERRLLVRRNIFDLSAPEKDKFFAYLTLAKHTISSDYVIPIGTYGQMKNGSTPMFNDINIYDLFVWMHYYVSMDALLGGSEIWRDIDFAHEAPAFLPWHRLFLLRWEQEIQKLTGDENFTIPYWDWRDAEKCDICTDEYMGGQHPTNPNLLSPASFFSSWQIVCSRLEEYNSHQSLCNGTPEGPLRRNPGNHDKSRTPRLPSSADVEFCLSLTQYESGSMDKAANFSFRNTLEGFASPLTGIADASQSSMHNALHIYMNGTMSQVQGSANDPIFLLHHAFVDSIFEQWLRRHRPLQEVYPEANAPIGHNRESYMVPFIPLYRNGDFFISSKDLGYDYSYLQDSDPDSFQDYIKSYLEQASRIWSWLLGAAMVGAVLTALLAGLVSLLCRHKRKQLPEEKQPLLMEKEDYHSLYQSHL
Assay: Tyrosinase inhibition
Format: biochemical
Settings: 0.1 wt % active concentration; compared to 0.1 wt % kojic acid

tyrosinase inhibition activity compared to that of kojic acid	SMILES
negligible	COc1cc(/C=[N+](\[O-])C(C)C)ccc1O [VAN-IPHA, (Z)—N-(4-hydroxy-3-methoxybenzylidine)propan-2-amine oxide]
about 60%	CC(C)/[N+]([O-])=C/c1ccc(O)cc1 [pHBz-IPHA, (Z)—N-(4-hydroxybenzylidene)propan-2-amine oxide]
